Series [1] deals with T1, Glucose-dependent insulinotropic receptor (Homo sapiens) (UniProt Q8TDV5).
T1 sequence (whole entry): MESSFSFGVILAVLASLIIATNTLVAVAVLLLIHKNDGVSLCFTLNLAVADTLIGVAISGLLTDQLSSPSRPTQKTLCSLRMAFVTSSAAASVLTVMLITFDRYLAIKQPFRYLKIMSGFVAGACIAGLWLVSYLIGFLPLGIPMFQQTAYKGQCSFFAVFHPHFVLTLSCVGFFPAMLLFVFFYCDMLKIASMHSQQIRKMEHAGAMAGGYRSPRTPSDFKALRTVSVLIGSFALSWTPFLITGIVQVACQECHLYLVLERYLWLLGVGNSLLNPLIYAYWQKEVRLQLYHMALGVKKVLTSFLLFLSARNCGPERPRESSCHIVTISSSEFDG
Nature of the series: Agonist activity at human GPR119 overexpressed in CHO cells assessed as increase in cellular cAMP production by HTRF method relative to AR231453. The format is functional, cell-based.

In series [2] the target is T2, Glucose-dependent insulinotropic receptor (Homo sapiens, UniProt Q8TDV5).
T2 sequence (Q8TDV5 whole entry): T1 sequence (whole entry)
Nature of the series: Agonist activity at human GPR119 overexpressed in CHO cells assessed as increase in cellular cAMP production by HTRF method. The format is functional, cell-based. (In general: Changes in cAMP serve as a functional read-out for many G protein-coupled receptors.)

Series [3] deals with T3, Glucose-dependent insulinotropic receptor (Mus musculus, UniProt Q7TQP3).
T3 sequence (Q7TQP3 whole entry): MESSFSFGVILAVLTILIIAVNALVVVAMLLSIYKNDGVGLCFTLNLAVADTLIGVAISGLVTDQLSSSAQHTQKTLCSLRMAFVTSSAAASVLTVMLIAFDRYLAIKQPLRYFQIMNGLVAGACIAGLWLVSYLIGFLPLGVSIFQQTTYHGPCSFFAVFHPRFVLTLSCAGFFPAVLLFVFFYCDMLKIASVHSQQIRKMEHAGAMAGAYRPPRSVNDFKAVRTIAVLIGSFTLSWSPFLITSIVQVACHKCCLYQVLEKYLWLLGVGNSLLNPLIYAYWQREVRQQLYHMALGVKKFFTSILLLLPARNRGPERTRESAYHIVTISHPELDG
Nature of the series: Agonist activity at mouse GPR119 overexpressed in CHO cells assessed as increase in cellular cAMP production by HTRF method. The format is functional, cell-based.

Series [4] can be described thus: Clearance in mouse liver microsomes assessed as extraction ratio. The format is ADME. To be noted: read-out: ERH. In general terms: Liver microsomes are a subcellular fraction often used to study metabolism.
The subject of the next series is Mus musculus. The series is described as follows: Dose normalized AUC in po dosed Balb/C mouse. Type of series: ADME, organism-based. As to conditions: in vivo.
The target in series [5] is T4, Glucose-dependent insulinotropic receptor (Mus musculus) (UniProt Q7TQP3).
T4 sequence (whole entry): T3 sequence (Q7TQP3 whole entry)
Nature of the series: Agonist activity at mouse GPR119 overexpressed in CHO cells assessed as increase in cellular cAMP production by HTRF method relative to AR231453. Type of series: functional, cell-based.

The nature of series [6]: Clearance in rat liver microsomes assessed as extraction ratio. The format is ADME. As to conditions: read-out: ERH.
Series [7] is described as follows: Clearance in human liver microsomes assessed as extraction ratio. The format is ADME. As to conditions: read-out: ERH.
The nature of series [8]: Solubility of the compound at pH 6.8. Type of series: physicochemical. To be noted: buffer.

Converted amounts (≈) assume the structure as drawn.

By EC50 is commonly meant the concentration giving half of the maximal effect. A word on the solubility: it is how much of the substance goes into solution per volume.

On to `CCOC(=O)C1(Cc2ccccc2)CCc2cnc3c(-c4ccc(Oc5ccccc5)cc4)cnn3c21` (racemic), for which the Efficacy in [1] amounted to 60%. In addition, the EC50 in series [2] came to 20 nM.
For the molecule `CCOC(=O)[C@@]1(Cc2ccccc2)CCc2cnc3c(-c4ccc(C(F)(F)F)cc4)cnn3c21`, the Efficacy is 85% in [1] and 80% in [5]. For the same molecule, the EC50 amounted to 8 nM in series [3] and 0.5 nM in series [2]. The hepatic extraction ratio in [4] worked out at 0.6; in series [6] it was 0.6; in series [7] it was 0.96. For the same molecule, the AUC/dose with Mus musculus amounted to 0.3 µM·h.
Regarding `COC(=O)[C@@]1(Cc2cccc(F)c2)NCc2cnc3c(-c4ccc(C(F)(F)F)cc4)c(C(C)(C)O)nn3c21`, the Efficacy in series [1] was found to be 58%. The EC50 in series [2] is 530 nM. Moreover, the hepatic extraction ratio in series [7] was found to be 0.51.
Consider `COC(=O)[C@@]1(Cc2cccc(F)c2)CCc2cnc3c(-c4ccc(C(F)(F)F)cc4)cnn3c21`, for which the Efficacy in series [1] is 92%; in series [5], 81%. In addition, the EC50 was found to be 9 nM in [3] and 3 nM in [2]. For the same molecule, the hepatic extraction ratio in [7] was found to be 0.96.
Regarding `CCOC(=O)[C@](C)(Cc1ccccc1)c1c(C)cnc2c(-c3ccc(C(F)(F)F)cc3)cnn12`, the Efficacy in series [1] came to 80%; in series [5], 62%. In addition, the EC50 in [3] stood at 11 nM; in [2] it was 1 nM. In addition, the hepatic extraction ratio in series [4], in [6] and in series [7] was 0.3 in each case. The AUC/dose in the series on Mus musculus came to 0.6 µM·h.
Turning to `CCOC(=O)C1(Cc2cccc(F)c2)NC(=O)c2cnc3c(-c4ccc(C(F)(F)F)cc4)cnn3c21` (racemic), the Efficacy in series [1] came out at 81%. Besides, the EC50 in [2] stood at 298 nM.
In the same order, the values of `COC(=O)C1(Cc2ccccc2)CCCCc2cnc3c(-c4ccc(C(F)(F)F)cc4)cnn3c21` (racemic) are 66% and 74 nM.
In the same order, the values of `CCOC(=O)C1(Cc2ccccc2)c2c(cnc3c(-c4ccc(C(F)(F)F)cc4)cnn23)CN1C` (racemic) are 55% and 214 nM.
Turning to `OCc1nn2c3c(cnc2c1-c1ccc(C(F)(F)F)cc1)CN[C@]3(Cc1cccc(F)c1)C1CC1`, in series [1], the Efficacy is 88%. In series [8], this molecule yielded a solubility of 6 µM (≈ 2.89 µg/mL). Moreover, in series [2], the EC50 turned out to be 2 nM. Moreover, the hepatic extraction ratio in series [7] stood at 0.9.
Turning to `CCOC(=O)[C@@]1(Cc2ccccc2)CNc2cnc3c(-c4ccc(C(F)(F)F)cc4)cnn3c21`, the Efficacy in [1] is 75%; in series [5], 80%. Further, the EC50 in series [3] and in [2] was 25 nM each time. In series [7], the hepatic extraction ratio is 0.75.
As to `COC(=O)C1(Cc2ccccc2)COc2cnc3c(-c4ccc(C(F)(F)F)cc4)cnn3c21` (racemic), the results for the Efficacy in series [1] and in [5] were 83% and 76%, respectively. The EC50 in series [3] is 15 nM; in [2], 11 nM. The hepatic extraction ratio in series [7] was found to be 0.88.
Take `CCOC(=O)[C@](C)(Cc1ccccc1)c1ccnc2c(-c3ccc(C(F)(F)F)cc3)c(C)nn12`: the Efficacy in series [1] amounted to 83%; in series [5], 72%. In addition, the 50% effective concentration (EC50) in series [3] worked out at 24 nM; in series [2], 23 nM.
On to `CCOC(=O)[C@](C)(Cc1ccccc1)c1c(Cl)cnc2c(-c3ccc(C(F)(F)F)cc3)cnn12`, for which the Efficacy turned out to be 75% in series [1] and 73% in series [5]. For the same molecule, the EC50 in series [3] was 8 nM; in [2] it was 3 nM.
Regarding `CCOC(=O)[C@]1(Cc2ccccc2)CCc2cnc3c(-c4ccc(C(F)(F)F)cc4)cnn3c21`, in series [1], the Efficacy came to 66%. Moreover, the EC50 in series [2] was 38 nM.
Regarding `COC(=O)C1(Cc2ccccc2)CCc2cnc3c(-c4ccc(C(F)(F)F)cc4)cnn3c21` (racemic), the figures for the Efficacy in [1] and in series [5] were 82% and 91%, respectively. Also, the values for the EC50 in series [3] and in series [2] were 17 nM and 2 nM, respectively. For the same molecule, in [7], the hepatic extraction ratio came out at 0.93.
On to `COC(=O)C1(Cc2ccccc2)OCc2cnc3c(-c4ccc(C(F)(F)F)cc4)cnn3c21` (racemic), for which the Efficacy was 77% in [1] and 78% in series [5]. In addition, the half-maximal effective concentration (EC50) came out at 35 nM in series [3] and 34 nM in series [2]. Moreover, the hepatic extraction ratio in series [7] came out at 0.96.
As for `COC(=O)[C@@]1(Cc2cccc(F)c2)NCc2cnc3c(-c4ccc(C(F)(F)F)cc4)c(C(N)=O)nn3c21`, the Efficacy in series [1] was determined as 74%. In series [8], this molecule displayed a solubility of 39 µM (≈ 20 µg/mL). In addition, the concentration for a half-maximal effect (EC50) in series [2] stood at 20 nM. In series [7], the hepatic extraction ratio stood at 0.92.
Turning to `CC1(Cc2cccc(F)c2)NCc2cnc3c(-c4ccc(C(F)(F)F)cc4)cnn3c21` (racemic), the Efficacy in [1] was determined as 77%. Further, in series [2], the EC50 is 436 nM.
Taken in the same sequence, the figures for `CCOC(=O)C1(Cc2ccccc2)CCCCCc2cnc3c(-c4ccc(C(F)(F)F)cc4)cnn3c21` (racemic) were 56% and 101 nM.
In the series on Mus musculus, `[2H]C([2H])(O)c1nn2c3c(cnc2c1-c1ccc(C(F)(F)F)cc1)CN[C@]3(Cc1cccc(F)c1)C(=O)OC` gave an AUC/dose of 7.89 µM·h. The molecule also gave a solubility in series [8] of 26 µM (≈ 13.1 µg/mL). The EC50 in [2] was found to be 2 nM. Further, in series [7], the hepatic extraction ratio came out at 0.83.
`COC(=O)C1(Cc2ccccc2)CCc2cnc3c(-c4ccc(C#N)cc4)cnn3c21` (racemic): the Efficacy in [1] amounted to 55%. The EC50 in [2] was 7 nM.
Take `COC(=O)[C@@]1(Cc2cccc(F)c2)NCc2cnc3c(-c4ccc(C(F)(F)F)nc4)c(CO)nn3c21`: the Efficacy in series [1] came to 101%; in series [1] (tested as the 2H-labelled form), 87%. The solubility in [8] was 99 µM (≈ 49.6 µg/mL). For the same molecule, the concentration for a half-maximal effect (EC50) in series [2] was determined as 15 nM. Moreover, in [7], the hepatic extraction ratio is 0.82.
Regarding `CCOC(=O)[C@@]1(Cc2ccccc2)CCCc2cnc3c(-c4ccc(C(F)(F)F)cc4)cnn3c21`, the Efficacy in series [1] was determined as 75%; in series [5] it was 59%. The EC50 in series [3] came out at 27 nM; in series [2] it was 8 nM. In addition, in series [7], the hepatic extraction ratio amounted to 0.71.
As for `COCCN(C)C(=O)[C@@]1(Cc2cccc(F)c2)NCc2cnc3c(-c4ccc(C(F)(F)F)cc4)cnn3c21`, in series [1], the Efficacy is 90%. In the series with Mus musculus, this molecule returned an AUC/dose of 0.07 µM·h. The solubility in series [8] was below 5 µM. Besides, the concentration for a half-maximal effect (EC50) in series [2] turned out to be 2 nM. Moreover, in [7], the hepatic extraction ratio came to 0.9.
For the molecule `COC(=O)[C@@]1(Cc2cccc(F)c2)N=Cc2cnc3c(-c4ccc(C(F)(F)F)cc4)cnn3c21`, the Efficacy in [1] is 84%; in series [5], 80%. Moreover, the results for the EC50 in series [3] and in [2] were 135 nM and 73 nM, respectively. Further, in series [7], the hepatic extraction ratio was determined as 0.97.
Regarding `COC(=O)C1(Cc2ccccc2)CCc2cnc3c(-c4ccc(S(C)(=O)=O)cc4)cnn3c21` (racemic), the Efficacy in series [1] worked out at 81%. In addition, the concentration giving a half-maximal response (EC50) in series [2] was found to be 125 nM. The hepatic extraction ratio in [7] came to 0.89.
Take `Fc1cccc(CC2(C3CC3)NCc3cnc4c(-c5ccc(C(F)(F)F)cc5)cnn4c32)c1` (racemic): the Efficacy in series [1] was 87%. Moreover, the EC50 in [2] came out at 21 nM. Further, the hepatic extraction ratio in series [7] was 0.6.
On to `CCOC(=O)[C@@]1(Cc2ccccc2)CCc2cnc3c(-c4ccc(Cl)cc4)cnn3c21`, for which the Efficacy worked out at 73% in [1] and 78% in [5]. Also, the EC50 is 11 nM in series [3] and 3 nM in series [2]. In addition, the hepatic extraction ratio in series [7] came to 0.79.
On to `CCOC(=O)[C@](C)(Cc1ccccc1)c1cc(C)nc2c(-c3ccc(Cl)cc3)cnn12`, for which the Efficacy in series [1] turned out to be 15%. Also, in series [2], the EC50 was above 10 nM.
`[2H]C([2H])(O)c1nn2c3c(cnc2c1-c1ccc(C(F)(F)F)nc1)CN[C@]3(Cc1cccc(F)c1)C(=O)OC` yielded an AUC/dose in the series on Mus musculus of 6.56 µM·h. In [8], this molecule displayed a solubility of 83 µM (≈ 41.8 µg/mL). Besides, the EC50 in series [2] is 35 nM. For the same molecule, the hepatic extraction ratio in series [7] worked out at 0.85.
Regarding `OCc1nn2c3c(cnc2c1-c1ccc(C(F)(F)F)nc1)CN[C@]3(Cc1cccc(F)c1)C1CC1`, in series [1], the Efficacy turned out to be 82%. In addition, in series [8], the solubility turned out to be 36 µM (≈ 17.4 µg/mL). Besides, the concentration giving a half-maximal response (EC50) in series [2] amounted to 6 nM. Moreover, in series [7], the hepatic extraction ratio was found to be 0.93.
On to `COC(=O)[C@@]1(Cc2cccc(F)c2)NCc2cnc3c(-c4ccc(C(F)(F)F)cc4)cnn3c21`, for which the Efficacy in [1] came to 91%; in [5] it was 88%. For the same molecule, the figures for the half-maximal effective concentration (EC50) in series [3] and in series [2] were 14 nM and 3 nM, respectively. This molecule gave an AUC/dose in the series with Mus musculus of 0.31 µM·h. For the same molecule, the hepatic extraction ratio in [7] was 0.95.

Source of the values: ChEMBL document CHEMBL3351405, “Novel tricyclic pyrazolopyrimidines as potent and selective GPR119 agonists” (Bioorg Med Chem Lett, 2014).
